# Source: ChEMBL document CHEMBL4229562, “Introduction of a Methyl Group Curbs Metabolism of Pyrido[3,4- d]pyrimidine Monopolar Spindle 1 (MPS1) Inhibitors and Enables the Discovery of the Phase 1 Clinical Candidate N2-(2-Ethoxy-4-(4-methyl-4 H-1,2,4-triazol-3-yl)phenyl)-6-methyl- N8-neopentylpyrido[3,4- d]pyrimidine-2,8-diamine …” (J Med Chem, 2018)
# pIC50, pKi: −log10 of the molar value.
# Legend:
# [1] = Lipophilicity, log P of the compound; format: physicochemical; conditions: octanol/water
# [2] = Drug metabolism in human liver microsomes assessed as 5-(3-methoxy-4-(8-(neopentylamino)pyrido[3,4-d]pyrimidin-2-ylamino)phenyl)-4-methyl-4H-1,2,4-triazol-3-ol formation at 1 uM preincubated for 10 mins followed NADPH/UDP-glucuronic acid addition and measured after 30 mins by LC-MS/MS analysis; format: ADME, microsome; conditions: 0.5 h
# [3] = Intrinsic clearance in human liver microsomes assessed per mg protein at 1 uM preincubated for 10 mins followed NADPH/UDP-glucuronic acid addition and measured after 30 mins by LC-MS/MS analysis; format: ADME, microsome; conditions: 0.5 h
# [4] = molecular target: T1, Dual specificity protein kinase TTK (Homo sapiens, UniProt P33981)
# T1 sequence (P33981 whole entry): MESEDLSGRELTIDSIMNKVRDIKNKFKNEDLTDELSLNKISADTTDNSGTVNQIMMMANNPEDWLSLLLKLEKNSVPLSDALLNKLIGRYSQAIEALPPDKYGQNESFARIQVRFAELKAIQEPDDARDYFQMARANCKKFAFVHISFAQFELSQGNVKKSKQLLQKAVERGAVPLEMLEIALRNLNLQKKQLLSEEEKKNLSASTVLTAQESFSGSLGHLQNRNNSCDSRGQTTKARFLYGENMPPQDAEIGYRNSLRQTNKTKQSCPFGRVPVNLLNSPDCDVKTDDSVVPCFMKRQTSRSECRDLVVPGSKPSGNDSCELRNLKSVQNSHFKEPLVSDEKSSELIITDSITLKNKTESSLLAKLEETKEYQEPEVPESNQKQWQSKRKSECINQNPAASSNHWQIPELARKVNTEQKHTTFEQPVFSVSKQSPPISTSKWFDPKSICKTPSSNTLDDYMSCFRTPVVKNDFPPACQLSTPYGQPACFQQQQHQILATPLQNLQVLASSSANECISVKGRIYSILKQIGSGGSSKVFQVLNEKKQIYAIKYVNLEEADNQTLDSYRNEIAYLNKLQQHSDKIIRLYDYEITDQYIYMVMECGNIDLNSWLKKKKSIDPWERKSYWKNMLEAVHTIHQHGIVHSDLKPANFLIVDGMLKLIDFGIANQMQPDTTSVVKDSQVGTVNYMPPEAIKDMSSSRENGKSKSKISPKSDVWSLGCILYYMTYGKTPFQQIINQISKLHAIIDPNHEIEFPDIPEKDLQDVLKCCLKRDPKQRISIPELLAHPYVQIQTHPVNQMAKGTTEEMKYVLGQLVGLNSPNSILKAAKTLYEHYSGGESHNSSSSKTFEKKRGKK
# Description: Inhibition of MPS1 autophosphorylation at Thr33/Ser37 in human HCT116 cells after 2 hrs by MSD assay
# [5] = Intrinsic clearance in CD1 mouse liver microsomes assessed per mg protein at 1 uM preincubated for 10 mins followed NADPH/UDP-glucuronic acid addition and measured after 30 mins by LC-MS/MS analysis; format: ADME, microsome; conditions: 0.5 h
# CDK2/Cyclin A2 = CDK2/Cyclin A2 (Homo sapiens, UniProt P24941)
# [6] = molecular target: T1, Dual specificity protein kinase TTK; remark: listed apart in the source
# Description: Inhibition of full length human N-terminal 6xHis-tagged MPS1 expressed in baculovirus expression system using 5FAM-H236 peptide as substrate after 60 to 90 mins by caliper assay
# [7] = Solubility of the compound in PBS buffer at pH 7.4 by HPLC analysis; format: physicochemical
# [8] = Drug metabolism in human liver microsomes assessed as 1-(2-(2-methoxy-4-(4-methyl-4H-1,2,4-triazol-3-yl)phenylamino)-6-methylpyrido[3,4-d]pyrimidin-8-ylamino)-2,2-dimethylpropan-1-ol formation at 1 uM preincubated for 10 mins followed NADPH/UDP-glucuronic acid addition and measured after 30 mins by LC-MS/MS analysis; format: ADME, microsome; conditions: 0.5 h
# [9] = Plasma concentration in doxycycline-inducible human DLD-1 cell xenografted mouse model at 25 mg/kg, po administered as single dose and measured after 24 hrs post dose by LC/MS analysis; format: ADME, organism-based
# [10] = Clearance in mouse at 5 mg/kg, iv by ESI-LCMS/MS analysis; format: ADME, organism-based; conditions: in vivo
# [11] = AUClast in mouse at 5 mg/kg, po measured after 6 hrs by ESI-LCMS/MS analysis; format: ADME, organism-based; conditions: in vivo
# [12] = Cmax in rat at 5 mg/kg, po by ESI-LCMS/MS analysis; format: ADME, organism-based; parameters: dose 5 mg/kg, route oral; conditions: in vivo
# Rattus norvegicus [13] = test: Oral bioavailability in rat at 5 mg/kg by ESI-LCMS/MS analysis; format: ADME, organism-based; conditions: in vivo
# [14] = AUClast in rat at 5 mg/kg, po measured after 6 hrs by ESI-LCMS/MS analysis; format: ADME, organism-based; conditions: in vivo
# Rattus norvegicus [15] = test: Half life in rat at 5 mg/kg, iv by ESI-LCMS/MS analysis; format: ADME, organism-based; conditions: in vivo
# [16] = Clearance in rat at 5 mg/kg, iv by ESI-LCMS/MS analysis; format: ADME, organism-based; conditions: in vivo
# [17] = Volume of distribution at steady state in mouse at 5 mg/kg, iv by ESI-LCMS/MS analysis; format: ADME, organism-based; conditions: in vivo, read-out: Vdss
# [18] = Cmax in mouse at 5 mg/kg, po by ESI-LCMS/MS analysis; format: ADME, organism-based; parameters: dose 5 mg/kg, route oral; conditions: in vivo
# Mus musculus [19] = test: Oral bioavailability in mouse at 5 mg/kg by ESI-LCMS/MS analysis; format: ADME, organism-based; conditions: in vivo
# Mus musculus [20] = test: Half life in mouse at 5 mg/kg, iv by ESI-LCMS/MS analysis; format: ADME, organism-based; conditions: in vivo
# [21] = Protein binding in mouse plasma; format: ADME, cell-free
# [22] = Volume of distribution at steady state in rat at 5 mg/kg, iv by ESI-LCMS/MS analysis; format: ADME, organism-based; conditions: in vivo, read-out: Vdss
# [23] = Drug level in human liver microsomes treated with 1 uM N2-(2-Methoxy-4-(4-methyl-4H-1,2,4-triazol-3-yl)phenyl)-6-methyl-N8-neopentylpyrido[3,4-d]pyrimidine-2,8-diamine assessed as compound formation preincubated for 10 mins followed NADPH/UDP-glucuronic acid addition and measured after 30 mins by LC-MS/MS analysis; format: ADME, microsome; conditions: 0.5 h
SMILES,logP [1],CLH [3],pIC50 [4],CLH [5],pIC50 (CDK2/Cyclin A2),pKi (CDK2/Cyclin A2),pKi [6],pIC50 [6],solubility [7],further results
COc1cc(-c2cnn(C)c2)ccc1Nc1ncc2ccnc(NCC(C)(C)C)c2n1,4.27,,,,,,,,,
COc1cc(-c2nncn2C)ccc1Nc1ncc2ccnc(NCC(C)(C)C)c2n1,3.6,92.1 µL/min/mg,8.46,81.5 µL/min/mg,7.80,8.10,≥ 10.15,,,Drug metabolism [2]: Metabolite_Detected
COc1cc(-c2cnn(C)c2C)ccc1Nc1ncc2ccnc(NCC(C)(C)C)c2n1,4.42,,7.02,,5.52,5.82,9.11,7.10,,
COc1cc(-c2cnc(C)n2C)ccc1Nc1ncc2ccnc(NCC(C)(C)C)c2n1,4.27,,7.36,92.5 µL/min/mg,7.07,7.37,10.08,8.07,,
COc1cc(-c2cnc(C)n2C)ccc1Nc1ncc2cc(C)nc(NCC(C)(C)C)c2n1,4.55,28.2 µL/min/mg,6.77,34.5 µL/min/mg,5.85,6.14,10.03,8.02,,
COc1cc(-c2nncn2C)ccc1Nc1ncc2cc(C)nc(NCC(C)(C)C)c2n1,3.88,23.8 µL/min/mg,7.52,41.1 µL/min/mg,6.89,7.19,9.89,7.89,8.6 µM,Drug metabolism [8]: Metabolite_Detected
COc1cc(-c2cn(C)nc2C)ccc1Nc1ncc2ccnc(NCC(C)(C)C)c2n1,4.56,,6.64,,5.55,5.85,7.62,5.60,,
CCOc1cc(-c2nncn2C)ccc1Nc1ncc2cc(C)nc(N3CC4(CCOCC4)C3)c2n1,3.08,9.4 µL/min/mg,7.43,32.9 µL/min/mg,5.60,5.89,9.96,7.96,56.2 µM,concentration at 24 h [9]: < 10 nM; clearance [10]: 22.6 mL/min/kg; AUC(0-t) at 6 h [11]: 4.78 µM·h; Cmax [12]: 1180 nM; F (Rattus norvegicus [13]): 22%; AUC(0-t) at 6 h [14]: 5.16 µM·h; t1/2 (Rattus norvegicus [15]): 1.5 h; clearance [16]: 7.59 mL/min/kg; Vd [17]: 1.21 L/kg; Cmax [18]: 3080 nM; F (Mus musculus [19]): 63%; t1/2 (Mus musculus [20]): 0.66 h; PPB [21]: 98.09%; Vd [22]: 0.89 L/kg
COc1cc(-c2nncn2C)ccc1Nc1ncc2cc(C)nc(NC(O)C(C)(C)C)c2n1 (centres undefined),,,,,,,,,,Drug uptake [23]: Active
CCOc1cc(-c2nnc(CCN(C)C)n2C)ccc1Nc1ncc2cc(C)nc(NCC(C)(C)C)c2n1,4.75,23 µL/min/mg,6.64,27.7 µL/min/mg,6.44,6.74,9.92,7.92,77.6 µM,
